Legend:
Cytochrome P450 3A4 = Cytochrome P450 3A4 (Homo sapiens, UniProt P08684); assay: Inhibition of CYP3A4 (unknown origin) up to 50 uM; type: ADME
Cytochrome P450 2D6 = Cytochrome P450 2D6 (Homo sapiens, UniProt P10635); assay: Inhibition of CYP2D6 (unknown origin) up to 50 uM; type: ADME
Cytochrome P450 2C9 = Cytochrome P450 2C9 (Homo sapiens, UniProt P11712); assay: Inhibition of CYP2C9 (unknown origin) up to 50 uM; type: ADME
Coagulation factor XII = biological target: T1, Coagulation factor XII (Homo sapiens, UniProt P00748); assay: Inhibition of factor 12a (unknown origin)
T1 sequence (P00748 whole entry): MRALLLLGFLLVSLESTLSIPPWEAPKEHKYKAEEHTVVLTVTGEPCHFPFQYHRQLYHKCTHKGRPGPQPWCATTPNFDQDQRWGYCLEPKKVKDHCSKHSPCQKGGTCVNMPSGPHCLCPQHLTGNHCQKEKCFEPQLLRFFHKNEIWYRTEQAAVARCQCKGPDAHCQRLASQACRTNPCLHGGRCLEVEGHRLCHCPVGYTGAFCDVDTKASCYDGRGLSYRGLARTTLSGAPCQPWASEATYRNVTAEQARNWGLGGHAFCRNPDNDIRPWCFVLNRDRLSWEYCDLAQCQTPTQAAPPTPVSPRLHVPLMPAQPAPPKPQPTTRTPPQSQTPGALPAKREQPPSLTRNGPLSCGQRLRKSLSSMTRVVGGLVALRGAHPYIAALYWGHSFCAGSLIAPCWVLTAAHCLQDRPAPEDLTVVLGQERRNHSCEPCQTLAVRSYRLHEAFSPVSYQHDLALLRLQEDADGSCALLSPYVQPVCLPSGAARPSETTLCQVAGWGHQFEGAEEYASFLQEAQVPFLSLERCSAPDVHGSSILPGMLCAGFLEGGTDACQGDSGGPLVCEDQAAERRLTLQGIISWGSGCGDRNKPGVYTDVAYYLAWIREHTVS

Coagulation factor VII = biological target: T2, Coagulation factor VII (Homo sapiens, UniProt P08709); assay: Inhibition of factor 7a (unknown origin)
T2 sequence (P08709 whole entry): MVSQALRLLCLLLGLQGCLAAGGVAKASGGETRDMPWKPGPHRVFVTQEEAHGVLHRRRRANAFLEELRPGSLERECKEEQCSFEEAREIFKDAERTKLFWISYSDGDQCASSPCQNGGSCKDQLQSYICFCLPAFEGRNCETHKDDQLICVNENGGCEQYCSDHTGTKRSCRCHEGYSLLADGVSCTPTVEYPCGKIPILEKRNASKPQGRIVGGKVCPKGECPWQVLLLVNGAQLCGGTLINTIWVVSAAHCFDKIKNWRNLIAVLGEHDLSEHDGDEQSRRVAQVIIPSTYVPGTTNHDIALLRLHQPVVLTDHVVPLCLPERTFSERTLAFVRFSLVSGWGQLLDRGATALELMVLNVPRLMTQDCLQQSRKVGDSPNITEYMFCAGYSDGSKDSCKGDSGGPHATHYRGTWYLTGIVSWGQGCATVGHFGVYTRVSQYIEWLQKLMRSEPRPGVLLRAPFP

Trypsin = Trypsin (Homo sapiens, UniProt P07477+P07478+P35030); assay: Inhibition of trypsin (unknown origin); type: protein assay
Coagulation factor X = Coagulation factor X (Homo sapiens, UniProt P00742); assay: Inhibition of factor 10a (unknown origin)
Coagulation factor X, sequence (P00742 41-179 limits assumed): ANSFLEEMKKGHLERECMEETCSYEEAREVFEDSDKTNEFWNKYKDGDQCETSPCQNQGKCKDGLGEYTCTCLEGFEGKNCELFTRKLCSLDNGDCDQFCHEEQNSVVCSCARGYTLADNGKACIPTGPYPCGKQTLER
Coagulation factor X, sequence (P00742 235-488 limits assumed): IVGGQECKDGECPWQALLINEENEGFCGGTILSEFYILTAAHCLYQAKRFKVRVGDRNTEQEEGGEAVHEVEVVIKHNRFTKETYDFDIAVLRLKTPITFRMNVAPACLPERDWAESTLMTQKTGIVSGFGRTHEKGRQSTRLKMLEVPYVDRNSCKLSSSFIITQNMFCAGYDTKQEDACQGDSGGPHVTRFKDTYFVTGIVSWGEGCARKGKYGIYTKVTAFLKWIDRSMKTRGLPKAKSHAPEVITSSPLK

[1] = Metabolic stability in dog hepatocytes assessed as compound remaining after 90 mins; type: ADME, cell-based, Canis lupus familiaris, Hepatocyte; conditions: read-out: Stability
[2] = Half life in dog at 0.3 mg/kg, iv; type: ADME, organism-based, Canis lupus familiaris; parameters: dose 0.3 mg/kg, route intravenous; conditions: in vivo
[3] = Clearance in dog at 0.3 mg/kg, iv; type: ADME, organism-based, Canis lupus familiaris; parameters: dose 0.3 mg/kg, route intravenous; conditions: in vivo
[4] = AUC in dog at 0.3 mg/kg, iv; type: ADME, organism-based, Canis lupus familiaris; parameters: dose 0.3 mg/kg, route intravenous; conditions: plasma
[5] = Volume of distribution in dog at 0.3 mg/kg, iv; type: ADME, organism-based, Canis lupus familiaris; parameters: dose 0.3 mg/kg, route intravenous; conditions: in vivo
Coagulation factor IX = Coagulation factor IX (Homo sapiens, UniProt P00740); assay: Inhibition of factor 9a (unknown origin)
Coagulation factor IX, sequence (P00740 47-191 limits assumed): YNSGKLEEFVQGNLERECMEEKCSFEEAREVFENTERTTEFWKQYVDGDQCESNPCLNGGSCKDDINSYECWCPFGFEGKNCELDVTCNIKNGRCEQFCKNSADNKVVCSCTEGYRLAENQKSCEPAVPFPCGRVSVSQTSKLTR
Coagulation factor IX, sequence (P00740 227-461 limits assumed): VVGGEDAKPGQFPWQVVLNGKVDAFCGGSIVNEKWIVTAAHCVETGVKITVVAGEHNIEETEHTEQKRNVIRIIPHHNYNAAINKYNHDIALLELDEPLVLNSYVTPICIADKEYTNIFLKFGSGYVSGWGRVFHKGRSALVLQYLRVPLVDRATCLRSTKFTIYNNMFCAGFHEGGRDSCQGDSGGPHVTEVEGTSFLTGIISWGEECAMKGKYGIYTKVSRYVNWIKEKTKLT

Prothrombin = Prothrombin (Homo sapiens, UniProt P00734); assay: Inhibition of thrombin (unknown origin)

Cytochrome P450 2D6, sequence (P10635 whole entry): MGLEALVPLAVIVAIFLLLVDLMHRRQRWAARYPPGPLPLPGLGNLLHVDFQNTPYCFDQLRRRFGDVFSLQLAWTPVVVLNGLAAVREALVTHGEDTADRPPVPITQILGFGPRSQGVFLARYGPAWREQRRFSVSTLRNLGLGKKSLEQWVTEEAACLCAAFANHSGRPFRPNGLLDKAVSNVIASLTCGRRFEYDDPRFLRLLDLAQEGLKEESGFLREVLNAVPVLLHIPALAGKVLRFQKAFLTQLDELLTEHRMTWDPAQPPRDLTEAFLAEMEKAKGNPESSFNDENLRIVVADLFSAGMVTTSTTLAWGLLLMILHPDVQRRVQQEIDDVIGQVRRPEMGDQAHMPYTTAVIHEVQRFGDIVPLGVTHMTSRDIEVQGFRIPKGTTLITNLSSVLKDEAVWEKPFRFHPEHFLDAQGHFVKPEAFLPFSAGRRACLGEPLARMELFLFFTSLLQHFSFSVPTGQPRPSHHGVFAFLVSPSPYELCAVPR
Cytochrome P450 3A4, sequence (P08684 whole entry): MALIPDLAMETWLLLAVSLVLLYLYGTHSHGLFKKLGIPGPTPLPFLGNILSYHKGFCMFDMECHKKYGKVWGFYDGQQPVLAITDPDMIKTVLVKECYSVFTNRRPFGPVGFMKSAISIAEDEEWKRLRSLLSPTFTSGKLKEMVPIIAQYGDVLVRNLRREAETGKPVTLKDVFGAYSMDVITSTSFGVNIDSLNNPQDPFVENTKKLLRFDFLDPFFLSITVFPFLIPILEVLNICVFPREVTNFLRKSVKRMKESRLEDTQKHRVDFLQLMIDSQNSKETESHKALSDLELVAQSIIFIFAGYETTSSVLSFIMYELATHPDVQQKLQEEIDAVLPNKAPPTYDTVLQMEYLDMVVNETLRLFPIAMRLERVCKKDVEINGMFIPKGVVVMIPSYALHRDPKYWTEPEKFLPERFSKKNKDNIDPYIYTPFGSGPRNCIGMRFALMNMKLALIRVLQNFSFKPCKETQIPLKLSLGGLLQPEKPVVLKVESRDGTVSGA
Cytochrome P450 2C9, sequence (P11712 whole entry): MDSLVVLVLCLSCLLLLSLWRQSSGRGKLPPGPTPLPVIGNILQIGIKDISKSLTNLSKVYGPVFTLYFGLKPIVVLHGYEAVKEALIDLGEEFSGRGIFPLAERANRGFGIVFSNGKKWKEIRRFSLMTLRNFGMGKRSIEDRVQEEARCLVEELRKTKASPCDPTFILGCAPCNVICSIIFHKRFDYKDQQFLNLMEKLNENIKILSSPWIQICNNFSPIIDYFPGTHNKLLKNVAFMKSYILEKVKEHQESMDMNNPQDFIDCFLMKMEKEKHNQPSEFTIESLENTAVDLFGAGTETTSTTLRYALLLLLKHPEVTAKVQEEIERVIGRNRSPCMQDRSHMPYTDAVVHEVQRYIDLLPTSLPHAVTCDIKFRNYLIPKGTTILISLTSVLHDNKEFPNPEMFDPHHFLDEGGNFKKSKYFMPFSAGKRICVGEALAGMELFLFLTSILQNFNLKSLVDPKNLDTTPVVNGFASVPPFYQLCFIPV

SMILES | inhibition (INH) (Cytochrome P450 3A4) | inhibition (INH) (Cytochrome P450 2D6) | inhibition (INH) (Cytochrome P450 2C9) | Ki (Coagulation factor XII) [µM] | Ki (Coagulation factor VII) [µM] | Ki (Trypsin) [µM] | Ki (Coagulation factor X) [µM] | remaining at 1.5 h [1] [%] | half-life [2] [h] | clearance [3] [mL/min/kg] | AUC [4] [µM·h] | Vd [5] [L/kg] | Ki (Coagulation factor IX) [µM] | Ki (Prothrombin) [µM]
CC(C)(C)[C@@H](O)C(=O)N1CCS(=O)(=O)C[C@H]1C(=O)NCc1cc(Cl)ccc1CN.O=C(O)C(F)(F)F | Not Active | Not Active | Not Active | > 15 | > 15 | 15 | 3.1 | – | – | – | – | – | – | –
CC(C)(C)[C@@H](O)C(=O)N1CC[S+]([O-])C[C@H]1C(=O)NCc1cc(Cl)ccc1CN.O=C(O)C(F)(F)F (stereo partly specified) | Not Active | Not Active | Not Active | – | – | – | – | – | – | – | – | – | – | –
CC(C)(C)[C@@H](O)C(=O)N1CCSC[C@H]1C(=O)NCc1cc(Cl)ccc1CN.O=C(O)C(F)(F)F | Not Active | Not Active | Not Active | > 15 | > 15 | 9.4 | 0.9 | 76 | 2.7 | 12.8 | 1 | 2.3 | – | –
CC(C)(C)[C@@H](O)C(=O)N1CCOC[C@H]1C(=O)NCc1cc(Cl)ccc1CN.O=C(O)C(F)(F)F | Not Active | Not Active | Not Active | > 15 | > 15 | 15 | 3.9 | – | – | – | – | – | 15 | –
CN1CCN(C(=O)[C@H](O)C(C)(C)C)[C@H](C(=O)NCc2cc(Cl)ccc2CN)C1.O=C(O)C(F)(F)F | Not Active | Not Active | Not Active | > 15 | > 15 | 15 | 3.7 | – | – | – | – | – | – | –
CC(C)(C)[C@@H](O)C(=O)N1CCNC[C@H]1C(=O)NCc1cc(Cl)ccc1CN.O=C(O)C(F)(F)F | Not Active | Not Active | Not Active | > 15 | > 15 | 15 | 4.4 | – | – | – | – | – | 15 | –
CC(C)(C)[C@@H](O)C(=O)N1CCCC[C@H]1C(=O)NCc1cc(Cl)ccc1CN.O=C(O)C(F)(F)F | Not Active | Not Active | Not Active | > 15 | > 15 | 10.6 | 1.8 | – | – | – | – | – | – | –
CC(C)(C)[C@@H](O)C(=O)N1CCC[C@H]1C(=O)NCc1cc(Cl)ccc1CN.O=C(O)C(F)(F)F | Not Active | Not Active | Not Active | > 15 | > 15 | 5.6 | 1.4 | 93 | 6.8 | 3.5 | 10 | 1.9 | > 3 | 0.0015

From ChEMBL document CHEMBL3112494, “Heterocyclic core analogs of a direct thrombin inhibitor” (Bioorg Med Chem Lett, 2014)
